Patent US9745335B2 (Blirt S.A., priority 2012, dated 2017)
Where two headings read alike, the source gives them in different places.

Tests used:
Type in all cases: cell-based
[1] = system: Candida albicans ATCC 10231; assay: antifungal activity in vitro, serial dilution in RPMI 1640
Method: (§1) For the determination of antifungal activity in vitro we used method of serial dilution in buffered medium RPMI 1640, pH 7.0, in a 96-wells microplates, according to the standard procedure (National Committee for Clinical Laboratory Standards. Reference method for broth dilution antifungal susceptibility testing of yeast, approved standard, 2nd ed. M27-A2 vol. 22 Wayne, Pa., 2002). The optical density of cells suspension was measured using a microplates reader (Victor^3, Perkin-Elmer) at the wavelength λ=531 nm (A531). On the basis of obtained results the diagrams of relation between A531 values and concentration of examined compound were made.

[2] = system: Candida glabrata DSM 11226; assay: as above
Method: as §1

Candida krusei DSM 6128 = assay: as above
Method: as §1

[3] = system: Candida lusitaniae DSM 70102; assay: as above
Method: as §1

[4] = system: Candida tropicalis KKP 334; assay: as above
Method: as §1

[5] = system: Saccharomyces cerevisiae ATCC 9763; assay: as above; details: RPMI 1640, pH 7.0; for Antifungal activity IC50: Saccharomyces cerevisiae ATCC 9763 (first head over MIC and IC50); for Antifungal activity MIC: Saccharomyces cerevisiae ATCC 9763
Method: as §1

Human erythrocytes = assay: hemotoxicity determination (hemolytic activity)
Method: The hemotoxicity determination was carried out by the serial dilutions method, according to the procedure described earlier (Slisz, M., et al., E., J Antibiot 57: 669-678 (2004). Human erythrocytes were suspended in the solution of saline to obtain a cell density of suspension 2×10^7/ml. Suitable amounts of diluted solutions of compounds were added to the cell suspension in tubes and were incubated at 37° C. for 30 minutes and then centrifuged (1700×g, 10 min, 4° C.). The concentration of hemoglobin in supernatant after centrifugation of erythrocytes suspension were determined by measuring the absorbance at wavelength λ=540 nm (A540). The maximum level of hemolysis was obtained after incubation of cells suspension in the presence of 0.1% Tritone X-100 (control sample). […] From these graphs, the EH50 values were read which are the interpolated concentrations of compound, for which the A540 value is exactly 50% of the A540 value measured for the control sample.

[6] = human erythrocytes, 37° C., 30 minutes

Compound | Antifungal activity MIC [1] | Antifungal activity MIC [2] | Antifungal activity MIC (Candida krusei DSM 6128) | Antifungal activity MIC [3] | Antifungal activity MIC [4] | Antifungal activity IC50 [5] | Antifungal activity MIC [5] | Hemotoxi EH50 (Human erythrocytes) | Hemotoxi EH50 (Human erythrocytes; [6])
C[C@@H]1[C@H](O)[C@@H](C)/C=C/C=C/C=C/C=C/C=C/C=C/C=C/[C@H](O[C@@H]2O[C@H](C)[C@@H](O)[C@H](NC3CC(=O)N(CCO)C3=O)[C@@H]2O)C[C@@H]2O[C@](O)(C[C@@H](O)C[C@@H](O)[C@H](O)CC[C@@H](O)C[C@@H](O)CC(=O)O[C@H]1C)C[C@H](O)[C@H]2C(=O)O (some centres unmarked) [Compound A8, N—[N-(2-hydroxyethyl)succinimidyl]amphotericin B] | 4 µg/mL | 8 µg/mL | 8 µg/mL | 4 µg/mL | 4 µg/mL | 1.36 µg/mL | 4 µg/mL | >100 µg/mL | –
C[C@@H]1[C@H](O)[C@@H](C)/C=C/C=C/C=C/C=C/C=C/C=C/C=C/[C@H](O[C@@H]2O[C@H](C)[C@@H](O)[C@H](NC(=O)[C@@H](N)CSC(C)(C)C)[C@@H]2O)C[C@@H]2O[C@](O)(C[C@@H](O)C[C@@H](O)[C@H](O)CC[C@@H](O)C[C@@H](O)CC(=O)O[C@H]1C)C[C@H](O)[C@H]2C(=O)O [Compound A37, N-L-(S-tert-butyl)cystylamphotericin B] | 2 µg/mL | 4 µg/mL | 4 µg/mL | 1 µg/mL | 2 µg/mL | 1.28 µg/mL | 2 µg/mL | >100 µg/mL | –
C[C@@H]1[C@H](O)[C@@H](C)/C=C/C=C/C=C/C=C/C=C/C=C/C=C/[C@H](O[C@@H]2O[C@H](C)[C@@H](O)[C@H](NC3CC(=O)N(CC(C)(C)CN(C)C)C3=O)[C@@H]2O)C[C@@H]2O[C@](O)(C[C@@H](O)C[C@@H](O)[C@H](O)CC[C@@H](O)C[C@@H](O)CC(=O)O[C@H]1C)C[C@H](O)[C@H]2C(=O)O (some centres unmarked) [Compound A7, N-{N-[3-(N,N-dimethylamino)-2,2-dimethylpropyl]succinimidyl}amphotericin B] | 4 µg/mL | 4 µg/mL | 4 µg/mL | 1 µg/mL | 2 µg/mL | 0.70 µg/mL | 2 µg/mL | >100 µg/mL | –
N-D-β-naphtylalanylamphotericin B [Compound A32] | 8 µg/mL | 8 µg/mL | 8 µg/mL | 4 µg/mL | 8 µg/mL | 3.01 µg/mL | 4 µg/mL | >100 µg/mL | –
Cc1cc(C)c(N2C(=O)CC(N[C@@H]3[C@H](O)[C@H](O[C@H]4/C=C/C=C/C=C/C=C/C=C/C=C/C=C/[C@H](C)[C@@H](O)[C@@H](C)[C@H](C)OC(=O)C[C@H](O)C[C@H](O)CC[C@@H](O)[C@H](O)C[C@H](O)C[C@]5(O)C[C@H](O)[C@@H](C(=O)O)[C@H](C4)O5)O[C@H](C)[C@H]3O)C2=O)c(C)c1 (some centres unmarked) [Compound A1, N—[N-(2,4,6-trimethylphenyl)succinimidyl]amphotericin B] | 4 µg/mL | 8 µg/mL | 8 µg/mL | 2 µg/mL | 4 µg/mL | 0.98 µg/mL | 2 µg/mL | >100 µg/mL | –
C[C@@H]1[C@H](O)[C@@H](C)/C=C/C=C/C=C/C=C/C=C/C=C/C=C/[C@H](O[C@@H]2O[C@H](C)[C@@H](O)[C@H](NC(=S)NCc3ccncc3)[C@@H]2O)C[C@@H]2O[C@](O)(C[C@@H](O)C[C@@H](O)[C@H](O)CC[C@@H](O)C[C@@H](O)CC(=O)O[C@H]1C)C[C@H](O)[C@H]2C(=O)O [Compound A29, N-{[3-(pyridin-4-yl)methyl]thioureidyl}amphotericin B] | 4 µg/mL | 8 µg/mL | 8 µg/mL | 4 µg/mL | 4 µg/mL | 2.56 µg/mL | 4 µg/mL | >100 µg/mL | –
C[C@@H]1[C@H](O)[C@@H](C)/C=C/C=C/C=C/C=C/C=C/C=C/C=C/[C@H](O[C@@H]2O[C@H](C)[C@@H](O)[C@H](NC(=S)Nc3ccccc3)[C@@H]2O)C[C@@H]2O[C@](O)(C[C@@H](O)C[C@@H](O)[C@H](O)CC[C@@H](O)C[C@@H](O)CC(=O)O[C@H]1C)C[C@H](O)[C@H]2C(=O)O [Compound A23, N-[(3-phenyl)-thioureidyl]amphotericin B] | 4 µg/mL | 8 µg/mL | 8 µg/mL | 4 µg/mL | 4 µg/mL | 2.54 µg/mL | 4 µg/mL | >100 µg/mL | –
C[C@@H]1[C@H](O)[C@@H](C)/C=C/C=C/C=C/C=C/C=C/C=C/C=C/[C@H](O[C@@H]2O[C@H](C)[C@@H](O)[C@H](NC(=O)[C@@H](N)Cc3ccc(I)cc3)[C@@H]2O)C[C@@H]2O[C@](O)(C[C@@H](O)C[C@@H](O)[C@H](O)CC[C@@H](O)C[C@@H](O)CC(=O)O[C@H]1C)C[C@H](O)[C@H]2C(=O)O [Compound A31, N-L-p-iodophenylalanylamphotericin B] | 4 µg/mL | 8 µg/mL | 8 µg/mL | 4 µg/mL | 4 µg/mL | 2.52 µg/mL | 4 µg/mL | – | >100 µg/mL
C[C@@H]1[C@H](O)[C@@H](C)/C=C/C=C/C=C/C=C/C=C/C=C/C=C/[C@H](O[C@@H]2O[C@H](C)[C@@H](O)[C@H](NC3CC(=O)N(c4ccc([N+](=O)[O-])cc4)C3=O)[C@@H]2O)C[C@@H]2O[C@](O)(C[C@@H](O)C[C@@H](O)[C@H](O)CC[C@@H](O)C[C@@H](O)CC(=O)O[C@H]1C)C[C@H](O)[C@H]2C(=O)O (some centres unmarked) [Compound A5, N—[N-(4-nitrophenyl)succinimidyl]amphotericin B] | 4 µg/mL | 4 µg/mL | 4 µg/mL | 2 µg/mL | 4 µg/mL | 1.94 µg/mL | 4 µg/mL | >100 µg/mL | –
C[C@@H]1[C@H](O)[C@@H](C)/C=C/C=C/C=C/C=C/C=C/C=C/C=C/[C@H](O[C@@H]2O[C@H](C)[C@@H](O)[C@H](NC(=O)[C@H](N)COC(C)(C)C)[C@@H]2O)C[C@@H]2O[C@](O)(C[C@@H](O)C[C@@H](O)[C@H](O)CC[C@@H](O)C[C@@H](O)CC(=O)O[C@H]1C)C[C@H](O)[C@H]2C(=O)O [Compound A40, N-D-(O-tert-butyl)serylamphotericin B] | 2 µg/mL | 4 µg/mL | 4 µg/mL | 2 µg/mL | 4 µg/mL | 1.35 µg/mL | 2 µg/mL | – | >200 µg/mL
